Laboratory results reported in the NIST ThermoML archive (doi:10.1021/je060271a).

Details: 323.15 K, Liquid, Vibrating tube method

CCCCCC(=O)OCC(COC(=O)CCCCC)(COC(=O)CCCCC)COC(=O)CCCCC [pentaerythritol tetrahexanoate]
Details | mass density [kg/m3]
1417.8 kPa | 973.7
1423 kPa | 973.6
1428.2 kPa | 973.6
1434.7 kPa | 973.7
1469.9 kPa | 973.8
1475.5 kPa | 973.7
1482.4 kPa | 973.8
1487.6 kPa | 973.7
1494.2 kPa | 973.8
1505.5 kPa | 973.8
1510.7 kPa | 973.7
1517 kPa | 973.8
1522.7 kPa | 973.9
1529.6 kPa | 973.7
1536.8 kPa | 973.7
1600 kPa | 973.8
1606.9 kPa | 973.8
1612.8 kPa | 973.9
1619 kPa | 973.7
1626.3 kPa | 973.9
1632.1 kPa | 973.7
1639.4 kPa | 973.9
1645.6 kPa | 973.8
1653.1 kPa | 973.9
1660 kPa | 973.9
1667 kPa | 973.8
1674.8 kPa | 973.9
1682.8 kPa | 973.8
1689 kPa | 973.9
1695.8 kPa | 973.9
1703.9 kPa | 974
1710.5 kPa | 973.9
1718.3 kPa | 974
1725.1 kPa | 973.9
1732.7 kPa | 973.7
1739.2 kPa | 973.8
1747.3 kPa | 973.9
1753.9 kPa | 973.9
1761.9 kPa | 974
1770.6 kPa | 973.9
1777.5 kPa | 974
1896.8 kPa | 974
1906.3 kPa | 974
1914.3 kPa | 974.1
1923.6 kPa | 973.9
1931.8 kPa | 974
1940.3 kPa | 974
1947.8 kPa | 974
1956.8 kPa | 974.1
1966 kPa | 974
1973.3 kPa | 974
1981.3 kPa | 974.1
1990.8 kPa | 974.2
2115.6 kPa | 974
2124.4 kPa | 974.1
2134.6 kPa | 974.2
2174 kPa | 974.2
2184.9 kPa | 974.2
2193.8 kPa | 974.2
2203.2 kPa | 974.3
2214.3 kPa | 974.2
2223.5 kPa | 974.3
2234.2 kPa | 974.3
2245.5 kPa | 974.4
2255 kPa | 974.4
2264.6 kPa | 974.2
2495.1 kPa | 974.6
2505.3 kPa | 974.6
2517.8 kPa | 974.5
2528.6 kPa | 974.4
2541.1 kPa | 974.5
2553.7 kPa | 974.6
2564.1 kPa | 974.4
2574.7 kPa | 974.3
2587.7 kPa | 974.5
2599.7 kPa | 974.4
2609.9 kPa | 974.6
2622.2 kPa | 974.5
2632.1 kPa | 974.6
2642.3 kPa | 974.5
2654.5 kPa | 974.6
2664.9 kPa | 974.6
2676.8 kPa | 974.6
2689.2 kPa | 974.6
2699.9 kPa | 974.4
2710 kPa | 974.6
2722.3 kPa | 974.6
2732.8 kPa | 974.6
2745.2 kPa | 974.6
2758 kPa | 974.5
2768.6 kPa | 974.7
2779.1 kPa | 974.7
2791.8 kPa | 974.6
2801.9 kPa | 974.7
2814.5 kPa | 974.7
2827.5 kPa | 974.6
2837.8 kPa | 974.7
2849 kPa | 974.6
2862 kPa | 974.6
2872.9 kPa | 974.7
2885.9 kPa | 974.7
2910.2 kPa | 974.8
2921.8 kPa | 974.6
2946.6 kPa | 974.8
2960 kPa | 974.8
3369.6 kPa | 975.1
3401.3 kPa | 975.1
3416.4 kPa | 975.1
3430.9 kPa | 975.1
3448.4 kPa | 975.1
3481 kPa | 975.1
3512.7 kPa | 975.1
3527.3 kPa | 975.1
3544.2 kPa | 975.1
3557.7 kPa | 975.2
3574.4 kPa | 975.2
3588.4 kPa | 975.2
3605 kPa | 975.1
3619.2 kPa | 975.1
3805.2 kPa | 975.3
3820 kPa | 975.3
3837.5 kPa | 975.4
3851.8 kPa | 975.4
3869.3 kPa | 975.5
3886.8 kPa | 975.5
3901.9 kPa | 975.4
3917 kPa | 975.4
3935.3 kPa | 975.5
3950.4 kPa | 975.4
3968.8 kPa | 975.5
3984.3 kPa | 975.5
4002.9 kPa | 975.4
4018.6 kPa | 975.5
4034.4 kPa | 975.4
4138.3 kPa | 975.6
4157.9 kPa | 975.5
4209.5 kPa | 975.6
4228.7 kPa | 975.6
4245.5 kPa | 975.7
4265.2 kPa | 975.6
4281.8 kPa | 975.7
4301.8 kPa | 975.7
4319.1 kPa | 975.8
4339.5 kPa | 975.8
